In patent US7612087B2, “Heterocyclic compounds as inhibitors of beta-lactamases” (Novexel, priority 2002, dated 2009):

What was measured:
[1] = target: T1, β-lactamase TEM1 (Escherichia coli, UniProt P62593); assay: Inhibition of isolated β-lactamase Tem-1 (Nitrocefin hydrolysis); format: biochemical, E.coli 250HT21; details: 100 μM Nitrocefin, 50 mM sodium phosphate buffer pH7.0, 37° C.
T1 construct: The β-lactamases are isolated from bacterial strains which are resistant to penicillins and cephalosporins; endogenous in cells; host or cells: E. coli 250HT21 (natural producer; French-press lysate, 100,000 g supernatant)
T1 sequence (P62593 24-286 limits assumed): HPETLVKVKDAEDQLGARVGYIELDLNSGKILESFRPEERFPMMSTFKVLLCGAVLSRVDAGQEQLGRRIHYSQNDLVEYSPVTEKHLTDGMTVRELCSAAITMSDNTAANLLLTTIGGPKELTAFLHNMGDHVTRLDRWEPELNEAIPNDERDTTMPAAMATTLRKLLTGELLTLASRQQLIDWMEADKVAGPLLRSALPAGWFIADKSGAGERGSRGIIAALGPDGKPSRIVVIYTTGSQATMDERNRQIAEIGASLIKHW
Procedure, shortened: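 TEM-1 from soluble extract of E. coli 250HT21, normalized enzyme, 100 μM Nitrocefin in 50 mM sodium phosphate pH 7.0 at 37 °C. Initial-rate hydrolysis read kinetically at 485 nm, with and without 5 min enzyme–inhibitor preincubation. CI50 from 6 or 8 concentrations in duplicate.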

[2] = target: T2, β-lactamase P99 (Enterobacter cloacae, UniProt P05364); assay: biochemical; details: 100 μM Nitrocefin, 50 mM sodium phosphate buffer pH7.0, 37° C.; read-out: IC50 nM/P99
T2 construct: The β-lactamases are isolated from bacterial strains which are resistant to penicillins and cephalosporins; endogenous in cells; host or cells: Enterobacter cloacae 293HT6 (natural producer; French-press lysate, 100,000 g supernatant)
T2 sequence (P05364 21-381): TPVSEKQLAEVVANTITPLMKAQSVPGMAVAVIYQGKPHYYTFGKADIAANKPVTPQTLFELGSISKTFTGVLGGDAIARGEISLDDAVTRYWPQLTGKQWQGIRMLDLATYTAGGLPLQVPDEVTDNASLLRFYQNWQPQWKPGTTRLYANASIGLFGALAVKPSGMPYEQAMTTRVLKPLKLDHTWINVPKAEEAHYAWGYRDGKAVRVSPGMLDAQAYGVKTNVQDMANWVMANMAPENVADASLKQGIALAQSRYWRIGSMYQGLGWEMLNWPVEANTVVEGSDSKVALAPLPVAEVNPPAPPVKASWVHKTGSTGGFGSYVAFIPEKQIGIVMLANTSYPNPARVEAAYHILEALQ
Procedure, shortened: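 P99 β-lactamase, taken from the soluble fraction of an Enterobacter cloacae 293HT6 lysate, was assayed at 37° C. in 50 mM sodium phosphate buffer pH7.0 with 100 μM Nitrocefin as the chromogenic substrate. Hydrolysis was followed kinetically at 485 nm at initial speed, with and without a 5 mn enzyme–inhibitor preincubation. Inhibitors were tested at 6 or 8 concentrations in duplicate, and IC50 was fitted with GraFit.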

[3] = test system: E. coli 250CF1 (Tem3); assay: microbe, parasite or virus in culture; format: cell-based; details: compound at 5 mg/l, 24 hours at 37° C.; for MIC of Cefotaxime in combination with the compound: Trial 4, 250CF1 E. coli Tem3; for MIC of Piperacillin in combination with the compound: Trial 4, 250CF1 Tem3
Procedure, shortened: (§1)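 Strains were seeded into liquid-medium dilutions of β-lactamine, each supplemented with a fixed 5 mg/l of test compound, and held 24 hours at 37° C in a heating chamber. Minimal inhibitory concentration was the level at which bacterial development was wholly absent.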

[4] = test system: E. cloacae 293HT6 (Class C); assay: MIC, micro-dilution in liquid medium, β-lactamine with product at 5 mg/l; format: cell-based; details: compound at 5 mg/l, 24 hours at 37° C.; for MIC of Piperacillin in combination with the compound: Trial 9, 293HT6 Class; for MIC of Cefotaxime in combination with the compound: Trial 9, 293HT6 E. cloacae Class C
Procedure, shortened: as §1

[5] = test system: E. coli 250BE1 (SHV4); assay: as above; format: cell-based; details: compound at 5 mg/l, 24 hours at 37° C.; for MIC of Cefotaxime in combination with the compound: Trial 7, 250BE1 E. coli SHV4; for MIC of Piperacillin in combination with the compound: Trial 7, 250BE1 SHV4
Procedure, shortened: as §1

[6] = test system: E. coli 250HT21 (Tem1); assay: as above; format: cell-based; details: compound at 5 mg/l, 24 hours at 37° C.; for MIC of Cefotaxime in combination with the compound: Trial 2, 250HT21 E. coli Tem1; for MIC of Piperacillin in combination with the compound: Trial 2, 250HT21 Tem1
Procedure, shortened: as §1

[7] = test system: E. coli 250HT22 (Tem2); assay: as above; format: cell-based; details: compound at 5 mg/l, 24 hours at 37° C.; for MIC of Cefotaxime in combination with the compound: Trial 3, 250HT22 E. coli Tem2; for MIC of Piperacillin in combination with the compound: Trial 3, 250HT22 Tem2
Procedure, shortened: as §1

[8] = test system: E. coli 250HT23 (Class D); assay: as above; format: cell-based; details: compound at 5 mg/l, 24 hours at 37° C.; for MIC of Piperacillin in combination with the compound: Trial 8, 250HT23 Class D; for MIC of Cefotaxime in combination with the compound: Trial 8, 250HT23 E. coli Class D
Procedure, shortened: as §1

[9] = test system: E. coli 250HT26 (SHV1); assay: as above; format: cell-based; details: compound at 5 mg/l, 24 hours at 37° C.; for MIC of Cefotaxime in combination with the compound: Trial 6, 250HT26 E. coli SHV1; for MIC of Piperacillin in combination with the compound: Trial 6, 250HT26 SHV1
Procedure, shortened: as §1

[10] = test system: E. coli 250SJ1 (Tem7); assay: as above; format: cell-based; details: compound at 5 mg/l, 24 hours at 37° C.; for MIC of Cefotaxime in combination with the compound: Trial 5, 250SJ1 E. coli Tem7; for MIC of Piperacillin in combination with the compound: Trial 5, 250SJ1 Tem7
Procedure, shortened: as §1

[11] = test system: P. aeruginosa 391HT7 (PSE); assay: as above; format: cell-based; details: compound at 5 mg/l, 24 hours at 37° C.; for MIC of Cefotaxime in combination with the compound: Trial 11, 391HT7 P. aeruginosa PSE; for MIC of Piperacillin in combination with the compound: Trial 11, 391HT7 PSE
Procedure, shortened: as §1

[12] = test system: P. aeruginosa 391HT8 (PSE); assay: as above; format: cell-based; details: compound at 5 mg/l, 24 hours at 37° C.; for MIC of Cefotaxime in combination with the compound: Trial 12, 391HT8 P. aeruginosa PSE; for MIC of Piperacillin in combination with the compound: Trial 12, 391HT8 PSE
Procedure, shortened: as §1

[13] = test system: S. aureus 011GO66 (PeniR); assay: as above; format: cell-based; details: compound at 5 mg/l, 24 hours at 37° C.; for MIC of Cefotaxime in combination with the compound: Trial 1, 011GO66 S. aureus PeniR; for MIC of Piperacillin in combination with the compound: Trial 1, 011GO66 peniR
Procedure, shortened: as §1

[14] = test system: Serratia 301HT6; assay: as above; format: cell-based; details: compound at 5 mg/l; Trial 10, 301HT6 Serratia; 24 hours at 37° C.
Procedure, shortened: as §1

SMILES	IC50 [1]	IC50 [2]	MIC of Cefotaxime in combination with the compound [3]	MIC of Piperacillin in combination with the compound [3]	MIC of Piperacillin in combination with the compound [4]	MIC of Cefotaxime in combination with the compound [4]	MIC of Cefotaxime in combination with the compound [5]	MIC of Piperacillin in combination with the compound [5]	MIC of Cefotaxime in combination with the compound [6]	MIC of Piperacillin in combination with the compound [6]	MIC of Cefotaxime in combination with the compound [7]	MIC of Piperacillin in combination with the compound [7]	MIC of Piperacillin in combination with the compound [8]	MIC of Cefotaxime in combination with the compound [8]	MIC of Piperacillin in combination with the compound [9]	MIC of Piperacillin in combination with the compound [10]	MIC of Piperacillin in combination with the compound [11]	MIC of Piperacillin in combination with the compound [12]	MIC of Piperacillin in combination with the compound [13]	MIC of Piperacillin in combination with the compound [14]	other results
CN(C)c1ccc(NC(=O)[C@H]2CC[C@@H]3CN2C(=O)N3OS(=O)(=O)[O-])cc1.[Na+] (relative stereo) [Example 40, sodium salt of trans-N-[4-(dimethylamino)phenyl]-7-oxo-6-(sulphooxy)-1,6-diazabicyclo[3.2.1]octane-2-carboxamide]	51 nM	96 nM	0.6 µg/mL	>40 µg/mL	>40 µg/mL	>40 µg/mL	1.2 µg/mL	>40 µg/mL	<=0.04 μg/ml	10 µg/mL	<=0.04 μg/ml	>40 µg/mL	20 µg/mL	<=0.04 μg/ml	>40 µg/mL	>40 µg/mL	>40 µg/mL	>40 µg/mL	0.6 µg/mL	1.2 µg/mL	MIC of Cefotaxime in combination with the compound [9]: <=0.04 μg/ml; MIC of Cefotaxime in combination with the compound [10]: 0.15 µg/mL; MIC of Cefotaxime in combination with the compound [11]: >40 µg/mL; MIC of Cefotaxime in combination with the compound [12]: >40 µg/mL; MIC of Cefotaxime in combination with the compound [13]: 2.5 µg/mL; MIC of Cefotaxime in combination with the compound [14]: 0.08 µg/mL
CN(C)c1cccc(NC(=O)[C@H]2CC[C@@H]3CN2C(=O)N3OS(=O)(=O)[O-])c1.[Na+] (relative stereo) [Example 41, sodium salt of trans-N-[3-(dimethylamino)phenyl]-7-oxo-6-(sulphooxy)-1,6-diazabicyclo[3.2.1]octane-2-carboxamide]	14 nM	120 nM	2.5 µg/mL	>40 µg/mL	>40 µg/mL	>40 µg/mL	>40 µg/mL	>40 µg/mL	<=0.04 μg/ml	40 µg/mL	<=0.04 μg/ml	>40 µg/mL	40 µg/mL	0.08 µg/mL	>40 µg/mL	>40 µg/mL	>40 µg/mL	>40 µg/mL	1.2 µg/mL	1.2 µg/mL	MIC of Cefotaxime in combination with the compound [9]: <=0.04 μg/ml; MIC of Cefotaxime in combination with the compound [10]: 0.6 µg/mL; MIC of Cefotaxime in combination with the compound [11]: >40 µg/mL; MIC of Cefotaxime in combination with the compound [12]: >40 µg/mL; MIC of Cefotaxime in combination with the compound [13]: 2.5 µg/mL; MIC of Cefotaxime in combination with the compound [14]: 0.08 µg/mL
O=C(NCc1ccncc1)[C@H]1CC[C@@H]2CN1C(=O)N2OS(=O)(=O)[O-].[Na+] (relative stereo) [Example 42, sodium salt of trans-7-oxo-N-[(4-pyridinyl)methyl]-6-(sulphooxy)-1,6-diazabicyclo[3.2.1]octane-2-carboxamide]	25 nM	70 nM	<=0.04 μg/ml	2.5 µg/mL	1.2 µg/mL	0.3 µg/mL	<=0.04 μg/ml	5 µg/mL	<=0.04 μg/ml	1.2 µg/mL	<=0.04 μg/ml	2.5 µg/mL	5 µg/mL	<=0.04 μg/ml	5 µg/mL	2.5 µg/mL	>40 µg/mL	>40 µg/mL	1.2 µg/mL	0.6 µg/mL	MIC of Cefotaxime in combination with the compound [9]: <=0.04 μg/ml; MIC of Cefotaxime in combination with the compound [10]: <=0.04 μg/ml; MIC of Cefotaxime in combination with the compound [11]: 20 µg/mL; MIC of Cefotaxime in combination with the compound [12]: 20 µg/mL; MIC of Cefotaxime in combination with the compound [13]: 2.5 µg/mL; MIC of Cefotaxime in combination with the compound [14]: <=0.04 μg/ml
NC(=O)Nc1cccc(NC(=O)[C@H]2CC[C@@H]3CN2C(=O)N3OS(=O)(=O)[O-])c1.[Na+] (relative stereo) [Example 46, sodium salt of trans-N-[3-[(aminocarbonyl)amino]phenyl]-7-oxo-6-(sulphooxy)-1,6-diazabicyclo[3.2.1]octane-2-carboxamide]	26 nM	70 nM	–	2.5 µg/mL	>40 µg/mL	–	–	40 µg/mL	–	5 µg/mL	–	>40 µg/mL	10 µg/mL	–	>40 µg/mL	>40 µg/mL	>40 µg/mL	>40 µg/mL	0.6 µg/mL	1.2 µg/mL	–
